Measured values from ChEMBL document CHEMBL1833829, “Development of 2-substituted-N-(naphth-1-ylmethyl) and N-benzhydrylpyrimidin-4-amines as dual cholinesterase and Aβ-aggregation inhibitors: Synthesis and biological evaluation” (Bioorg Med Chem Lett, 2011).

Tests used:
Acetylcholinesterase = Acetylcholinesterase (Homo sapiens, UniProt P22303)
Description: Inhibition of human AChE by Ellman's assay

Cholinesterase [1] = molecular target: T1, Cholinesterase (Equus caballus, UniProt P81908)
Description: (§1) Inhibition of equine BuChE by Ellman's method

Cholinesterase [2] = molecular target: T1, Cholinesterase; remark: listed apart in the source
Description: as §1

T1 sequence (P81908 whole entry): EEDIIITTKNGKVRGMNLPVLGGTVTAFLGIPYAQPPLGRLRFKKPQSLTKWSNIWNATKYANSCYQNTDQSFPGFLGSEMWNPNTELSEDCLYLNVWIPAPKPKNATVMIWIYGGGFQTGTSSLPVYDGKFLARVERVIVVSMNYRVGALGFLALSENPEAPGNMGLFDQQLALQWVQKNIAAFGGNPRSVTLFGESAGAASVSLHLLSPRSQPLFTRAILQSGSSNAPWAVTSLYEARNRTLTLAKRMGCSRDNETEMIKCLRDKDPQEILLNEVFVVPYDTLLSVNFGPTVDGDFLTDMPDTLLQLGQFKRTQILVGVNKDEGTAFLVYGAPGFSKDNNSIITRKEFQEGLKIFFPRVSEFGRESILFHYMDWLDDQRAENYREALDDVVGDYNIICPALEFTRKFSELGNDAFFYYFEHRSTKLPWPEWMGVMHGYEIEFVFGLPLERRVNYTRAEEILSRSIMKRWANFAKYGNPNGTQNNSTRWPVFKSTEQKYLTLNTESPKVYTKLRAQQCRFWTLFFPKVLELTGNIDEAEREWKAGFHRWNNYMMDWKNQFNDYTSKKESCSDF
Sequence of Acetylcholinesterase (P22303 whole entry): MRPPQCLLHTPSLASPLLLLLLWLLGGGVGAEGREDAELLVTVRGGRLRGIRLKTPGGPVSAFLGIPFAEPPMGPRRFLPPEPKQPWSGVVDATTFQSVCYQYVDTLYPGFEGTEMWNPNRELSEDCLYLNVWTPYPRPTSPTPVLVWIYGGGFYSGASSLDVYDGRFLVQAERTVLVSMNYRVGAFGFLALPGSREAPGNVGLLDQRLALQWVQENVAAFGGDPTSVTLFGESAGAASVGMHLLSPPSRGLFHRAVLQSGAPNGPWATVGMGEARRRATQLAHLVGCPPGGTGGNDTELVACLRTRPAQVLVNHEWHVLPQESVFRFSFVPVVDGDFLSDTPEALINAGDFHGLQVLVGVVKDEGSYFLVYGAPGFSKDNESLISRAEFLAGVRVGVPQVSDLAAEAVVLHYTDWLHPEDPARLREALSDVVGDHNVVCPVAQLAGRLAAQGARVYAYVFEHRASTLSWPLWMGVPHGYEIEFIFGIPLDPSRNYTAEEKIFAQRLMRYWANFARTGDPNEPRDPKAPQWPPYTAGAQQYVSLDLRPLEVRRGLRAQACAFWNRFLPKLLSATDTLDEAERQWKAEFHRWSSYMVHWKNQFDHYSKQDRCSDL

CC(C)C1CCN(c2nccc(NCc3cccc4ccccc34)n2)CC1
IC50 (Acetylcholinesterase): 16.7 µM | IC50 (Cholinesterase [1]): 9.1 µM

OCCN1CCN(c2nccc(NC(c3ccccc3)c3ccccc3)n2)CC1
IC50 (Acetylcholinesterase): 21.6 µM | IC50 (Cholinesterase [1]): 59.5 µM

CC1CCN(c2nccc(NC(c3ccccc3)c3ccccc3)n2)CC1
IC50 (Acetylcholinesterase): 32.2 µM | IC50 (Cholinesterase [1]): 33.8 µM

CC(C)C1CCN(c2nccc(NC(c3ccccc3)c3ccccc3)n2)CC1
IC50 (Acetylcholinesterase): 42.5 µM | IC50 (Cholinesterase [1]): 87 µM

CC(C)(C)OC(=O)N1CCN(c2nccc(NC(c3ccccc3)c3ccccc3)n2)CC1
IC50 (Acetylcholinesterase): > 100 µM | IC50 (Cholinesterase [1]): > 100 µM

c1ccc2c(CNc3ccnc(N4CCN(C5CCCCC5)CC4)n3)cccc2c1
IC50 (Acetylcholinesterase): 8 µM | IC50 (Cholinesterase [1]): 3.9 µM

COCCN1CCN(c2nccc(NC(c3ccccc3)c3ccccc3)n2)CC1
IC50 (Acetylcholinesterase): 39.2 µM | IC50 (Cholinesterase [1]): 28.4 µM

CC(=O)N1CCN(c2nccc(NC(c3ccccc3)c3ccccc3)n2)CC1
IC50 (Acetylcholinesterase): 29 µM | IC50 (Cholinesterase [1]): > 100 µM

COCCN1CCN(c2nccc(NCc3cccc4ccccc34)n2)CC1
IC50 (Acetylcholinesterase): 11.7 µM | IC50 (Cholinesterase [1]): 26.5 µM

CC(C)N1CCN(c2nccc(NCc3cccc4ccccc34)n2)CC1
IC50 (Acetylcholinesterase): 15.8 µM | IC50 (Cholinesterase [1]): 7.6 µM

OCCN1CCN(c2nccc(NCc3cccc4ccccc34)n2)CC1
IC50 (Acetylcholinesterase): 9.8 µM | IC50 (Cholinesterase [1]): 17.9 µM

c1ccc2c(CNc3ccnc(N4CCNCC4)n3)cccc2c1
IC50 (Acetylcholinesterase): 17.5 µM | IC50 (Cholinesterase [1]): 25.4 µM

CCCN1CCN(c2nccc(NC(c3ccccc3)c3ccccc3)n2)CC1
IC50 (Acetylcholinesterase): 14.6 µM | IC50 (Cholinesterase [1]): 17.5 µM

CCCN1CCN(c2nccc(NCc3cccc4ccccc34)n2)CC1
IC50 (Acetylcholinesterase): 19 µM | IC50 (Cholinesterase [1]): 18.1 µM

CC(=O)N1CCN(c2nccc(NCc3cccc4ccccc34)n2)CC1
IC50 (Acetylcholinesterase): 13.8 µM | IC50 (Cholinesterase [1]): 32.9 µM

CC(C)N1CCN(c2nccc(NC(c3ccccc3)c3ccccc3)n2)CC1
IC50 (Acetylcholinesterase): 20.3 µM | IC50 (Cholinesterase [1]): 9.7 µM

c1ccc(C(Nc2ccnc(N3CCN(C4CCCCC4)CC3)n2)c2ccccc2)cc1
IC50 (Acetylcholinesterase): 10 µM | IC50 (Cholinesterase [1]): 7.6 µM

CN1CCN(c2nccc(NC(c3ccccc3)c3ccccc3)n2)CC1
IC50 (Acetylcholinesterase): 13.7 µM | IC50 (Cholinesterase [1]): 23.8 µM

c1ccc(C(Nc2ccnc(N3CCNCC3)n2)c2ccccc2)cc1
IC50 (Acetylcholinesterase): 31.3 µM | IC50 (Cholinesterase [1]): > 100 µM

CC1CCN(c2nccc(NCc3cccc4ccccc34)n2)CC1
IC50 (Cholinesterase [2]): 2200 nM

CC(C)(C)OC(=O)N1CCN(c2nccc(NCc3cccc4ccccc34)n2)CC1
IC50 (Acetylcholinesterase): 50.8 µM | IC50 (Cholinesterase [1]): > 100 µM
